Laboratory results published in ChEMBL document CHEMBL1781941, “Synthesis and antitumor activity of 5-[1-(3-(dimethylamino)propyl)-5-halogenated-2-oxoindolin-(3Z)-ylidenemethyl]-2,4-dimethyl-1H-pyrrole-3-carboxamides” (Bioorg Med Chem Lett, 2011).

How the values were obtained:
[1] = test system: K562; experiment: Antitumor activity against human K562 cells; type: functional, cell-based
[2] = test system: HUVEC; experiment: Inhibition of bFGF-induced cell proliferation in HUVEC by MTT assay; type: functional, cell-based; conditions: Homo sapiens
[3] = test system: HL-60; experiment: Antitumor activity against human HL60 cells; type: functional, cell-based
[4] = test system: HUVEC; experiment: Inhibition of VEGF-induced cell proliferation in HUVEC by MTT assay; type: functional, cell-based; conditions: Homo sapiens
[5] = test system: IM-9; experiment: Antitumor activity against human IM9 cells; type: functional, cell-based
[6] = test system: A549; experiment: Antitumor activity against human A549 cells; type: functional, cell-based
[7] = test system: MDA-MB-231; experiment: Antitumor activity against human MDA-MB-231 cells; type: functional, cell-based
[8] = test system: MDA-MB-231; experiment: Ratio of Sunitinib IC50 to compound IC50 for human MDA-MB-231 cells; type: functional
[9] = test system: A549; experiment: Ratio of Sunitinib IC50 to compound IC50 for human A549 cells; type: functional
[10] = test system: K562; experiment: Ratio of Sunitinib IC50 to compound IC50 for human K562 cells; type: functional
[11] = test system: IM-9; experiment: Ratio of Sunitinib IC50 to compound IC50 for human IM9 cells; type: functional

Row | IC50 [1] [µM] | IC50 [3] [µM] | IC50 [5] [µM] | IC50 [6] [µM] | IC50 [7] [µM] | SMILES | IC50 [2] [µM] | IC50 [4] [µM] | Ratio IC50 [8] | Ratio IC50 [9] | Ratio IC50 [10] | Ratio IC50 [11]
1 | 6.58 | 7.82 | 9.36 | 14 | 11.5 | Cc1[nH]c(/C=C2\C(=O)N(CCCN(C)C)c3ccc(Cl)cc32)c(C)c1C(=O)N1CCCC1 | 4.65 | 3.92 | – | – | – | –
2 | 4.09 | 4.39 | 4.83 | 18.7 | 11.5 | Cc1[nH]c(/C=C2\C(=O)N(CCCN(C)C)c3ccc(F)cc32)c(C)c1C(=O)N1CCCCC1 | 5.27 | 4.06 | – | – | – | –
3 | 5.27 | 7.59 | 4.06 | 11.1 | 9 | Cc1[nH]c(/C=C2\C(=O)N(CCCN(C)C)c3ccc(F)cc32)c(C)c1C(=O)N1CCN(C)CC1 | 5.64 | 2.99 | – | – | – | –
4 | 5.98 | 13.4 | 7.26 | 13.7 | 8.09 | CCN1CCN(C(=O)c2c(C)[nH]c(/C=C3\C(=O)N(CCCN(C)C)c4ccc(F)cc43)c2C)CC1 | 3.38 | 1.58 | – | – | – | –
5 | 2.45 | 2.62 | 2.25 | 8.88 | 3.46 | CCN1CCN(C(=O)c2c(C)[nH]c(/C=C3\C(=O)N(CCCN(C)C)c4ccc(Cl)cc43)c2C)CC1 | 1.77 | 1.02 | – | – | – | –
6 | 1.41 | 3.56 | 1.47 | 6.78 | 5.06 | Cc1[nH]c(/C=C2\C(=O)N(CCCN(C)C)c3ccc(Cl)cc32)c(C)c1C(=O)N1CCN(C)CC1 | 2 | 1.34 | – | – | – | –
7 | 11.6 | 11.9 | 19.1 | 21.2 | 13.3 | Cc1[nH]c(/C=C2\C(=O)N(CCCN(C)C)c3ccc(F)cc32)c(C)c1C(=O)N1CCCC1 | 11.3 | 6.56 | – | – | – | –

The next lines start with the compound.

Row | SMILES | IC50 [1] [µM] | IC50 [3] [µM] | IC50 [5] [µM] | IC50 [6] [µM] | IC50 [7] [µM] | IC50 [2] [µM] | IC50 [4] [µM] | Ratio IC50 [8] | Ratio IC50 [9] | Ratio IC50 [10] | Ratio IC50 [11]
8 | Cc1[nH]c(/C=C2\C(=O)N(CCCN(C)C)c3ccc(F)cc32)c(C)c1C(=O)NCCN(C)C | 1.46 | 2.73 | 1.36 | 2.94 | 2.14 | 1.42 | 0.48 | – | – | – | –
9 | CCN(CC)CCNC(=O)c1c(C)[nH]c(/C=C2\C(=O)N(CCCN(C)C)c3ccc(F)cc32)c1C | 1.33 | 1.82 | 1.63 | 5.08 | 2.86 | 1.68 | 0.71 | – | – | – | –
10 | CCN(CC)C(=O)c1c(C)[nH]c(/C=C2\C(=O)N(CCCN(C)C)c3ccc(F)cc32)c1C | 4.88 | 10.7 | 14.1 | 29.9 | 13.7 | 10.5 | 3.96 | – | – | – | –
11 | Cc1[nH]c(/C=C2\C(=O)N(CCCN(C)C)c3ccc(F)cc32)c(C)c1C(=O)N(C)C | 13.6 | 14.8 | 17.9 | 25.2 | 19.2 | 19.9 | 5.23 | – | – | – | –
12 | Cc1[nH]c(/C=C2\C(=O)N(CCCN(C)C)c3ccc(Cl)cc32)c(C)c1C(=O)N1CCCCC1 | 2.14 | 3.99 | 4.49 | 7.33 | 5.68 | 2.04 | 1.31 | – | – | – | –
13 | Cc1[nH]c(/C=C2\C(=O)N(CCCN(C)C)c3ccc(Cl)cc32)c(C)c1C(=O)N(C)C | 6.74 | 7.3 | 9.42 | 16 | 12 | 8.27 | 1.62 | – | – | – | –
14 | CCN(CC)CCNC(=O)c1c(C)[nH]c(/C=C2\C(=O)Nc3ccc(F)cc32)c1C [SUNITINIB] | 2.41 | 3.53 | 1.35 | 6.61 | 4.51 | 4.04 | 2.75 | – | – | – | –
15 | CCN(CC)CCNC(=O)c1c(C)[nH]c(/C=C2\C(=O)N(CCCN(C)C)c3ccc(Cl)cc32)c1C.Cl.Cl.Cl | 0.52 | 1.07 | 0.47 | 3.11 | 2.29 | 3.08 | 2.72 | 2.1 | 2.1 | 4.6 | 2.1
16 | Cc1[nH]c(/C=C2\C(=O)N(CCCN(C)C)c3ccc(Cl)cc32)c(C)c1C(=O)NCCN(C)C | 0.53 | 1.17 | 0.45 | 3.52 | 2.44 | 3.36 | 1.11 | – | – | – | –
17 | CCN(CC)C(=O)c1c(C)[nH]c(/C=C2\C(=O)N(CCCN(C)C)c3ccc(Cl)cc32)c1C | 2.07 | 4.02 | 6.28 | 13.1 | 6.82 | 4.87 | 2.9 | – | – | – | –
